Legend:
Experiment in all cases: relative viability (nuclei count vs DMSO), 5 days (fraction); higher = more cells survive
QS11 + AZD7762 = compound: C1CC2=C(C1)C=C(C=C2)OC3=NC(=C4C(=N3)N(C=N4)CC5=CC=C(C=C5)C6=CC=CC=C6)N[C@@H](CC7=CC=CC=C7)CO [QS11] + NC(=O)Nc1cc(-c2cccc(F)c2)sc1C(=O)N[C@H]1CCCNC1 [AZD7762] (partner 0.2 µM)
Summary of the method: (§1)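 Relative viability was taken as the ratio of nuclei in treated wells to nuclei in vehicle wells. Lung cancer cell lines in 1536-well plates received compounds by pin tool one day after seeding, either one drug alone or a fixed anchor-drug dose plus five library-drug doses (not always all listed) in √10 steps. Nuclei were counted on 4× images after 5 days of treatment, and values are medians of duplicate plates.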

QS11 + Vorinostat = compound: C1CC2=C(C1)C=C(C=C2)OC3=NC(=C4C(=N3)N(C=N4)CC5=CC=C(C=C5)C6=CC=CC=C6)N[C@@H](CC7=CC=CC=C7)CO [QS11] + O=C(CCCCCCC(=O)Nc1ccccc1)NO [Vorinostat] (partner 1 µM)
Summary of the method: as §1

AZ628 + Bortezomib = compound: CC1=C(C=C(C=C1)NC(=O)C2=CC(=CC=C2)C(C)(C)C#N)NC3=CC4=C(C=C3)N=CN(C4=O)C [AZ628] + CC(C)C[C@H](NC(=O)[C@H](Cc1ccccc1)NC(=O)c1cnccn1)B(O)O [Bortezomib] (partner 0.002 µM)
Summary of the method: as §1

AZ628 + Alpelisib = compound: CC1=C(C=C(C=C1)NC(=O)C2=CC(=CC=C2)C(C)(C)C#N)NC3=CC4=C(C=C3)N=CN(C4=O)C [AZ628] + Cc1nc(NC(=O)N2CCC[C@H]2C(N)=O)sc1-c1ccnc(C(C)(C)C(F)(F)F)c1 [Alpelisib] (partner 2 µM)
Summary of the method: as §1

Cell Line | relative viability (QS11 + AZD7762; first compound 0.08 µM) | relative viability (QS11 + AZD7762; first compound 0.253 µM) | relative viability (QS11 + AZD7762; first compound 0.8 µM) | relative viability (QS11 + AZD7762; first compound 2.53 µM) | relative viability (QS11 + AZD7762; first compound 8 µM) | relative viability (QS11 + Vorinostat; first compound 0.08 µM) | relative viability (QS11 + Vorinostat; first compound 0.253 µM) | relative viability (QS11 + Vorinostat; first compound 0.8 µM) | relative viability (QS11 + Vorinostat; first compound 2.53 µM) | relative viability (QS11 + Vorinostat; first compound 8 µM) | relative viability (AZ628 + Bortezomib; first compound 0.08 µM) | relative viability (AZ628 + Bortezomib; first compound 0.253 µM) | relative viability (AZ628 + Bortezomib; first compound 0.8 µM) | relative viability (AZ628 + Bortezomib; first compound 2.53 µM) | relative viability (AZ628 + Bortezomib; first compound 8 µM) | relative viability (AZ628 + Alpelisib; first compound 0.08 µM) | relative viability (AZ628 + Alpelisib; first compound 0.253 µM) | relative viability (AZ628 + Alpelisib; first compound 0.8 µM) | relative viability (AZ628 + Alpelisib; first compound 2.53 µM) | relative viability (AZ628 + Alpelisib; first compound 8 µM)
NCI-H650 | 0.762 | 0.981 | 0.775 | 1.05 | 0.645 | 0.496 | 0.414 | 0.333 | 0.416 | 0.45 | 1.2 | 1.05 | 1.32 | 0.744 | 1.02 | 1.32 | 1.44 | 1.38 | 1.29 | 0.939
NCI-H727 | 0.694 | 0.581 | 0.584 | 0.727 | 0.612 | 1.28 | 1.16 | 1.29 | 1.07 | 1.37 | 0.604 | 0.487 | 0.389 | 0.42 | 0.295 | 0.499 | 0.308 | 0.301 | 0.318 | 0.23
NCI-H838 | 1 | 0.87 | 0.844 | 0.905 | 1.03 | 0.735 | 0.642 | 0.666 | 0.774 | 0.755 | 0.949 | 0.772 | 0.733 | 0.838 | 0.942 | 1.03 | 0.991 | 0.953 | 0.92 | 0.841
NCI-H1355 | 0.729 | 0.607 | 0.666 | 0.614 | 0.759 | 0.732 | 0.62 | 0.529 | 0.597 | 0.554 | 1.21 | 1.03 | 1.12 | 1.12 | 1.1 | 0.849 | 0.742 | 0.737 | 0.685 | 0.558
NCI-H1437 | 1.12 | 1.18 | 0.891 | 1.08 | 1.11 | 0.894 | 0.751 | 0.616 | 0.609 | 0.39 | 0.488 | 0.544 | 0.425 | 0.486 | 0.556 | 0.958 | 0.976 | 1.02 | 1.01 | 0.988
NCI-H1651 | 0.445 | 0.481 | 0.487 | 0.458 | 0.404 | 0.555 | 0.518 | 0.527 | 0.571 | 0.564 | 1.03 | 0.903 | 0.897 | 0.953 | 0.887 | 1.12 | 1.02 | 0.84 | 0.884 | 0.995
NCI-H1666 | 0.959 | 0.806 | 0.682 | 0.727 | 0.63 | 1.04 | 1.09 | 0.924 | 0.713 | 0.73 | 0.812 | 0.715 | 0.567 | 0.621 | 0.705 | 0.79 | 0.765 | 0.522 | 0.534 | 0.425
NCI-H1734 | 0.579 | 0.595 | 0.71 | 0.465 | 0.529 | 0.79 | 0.82 | 0.779 | 0.792 | 0.672 | 0.969 | 0.809 | 0.903 | 0.756 | 0.562 | 0.658 | 0.595 | 0.571 | 0.619 | 0.498
NCI-H1755 | 0.472 | 0.492 | 0.42 | 0.48 | 0.413 | 0.748 | 0.714 | 0.605 | 0.515 | 0.655 | 0.947 | 0.878 | 0.909 | 0.942 | 0.818 | 0.923 | 0.878 | 0.887 | 0.822 | 0.792
NCI-H1915 | 0.693 | 0.702 |  | 0.753 | 0.634 | 0.522 | 0.528 |  | 0.467 | 0.391 | 0.939 | 1.02 | 0.771 | 0.598 | 0.716 | 1.09 | 1.04 | 0.911 | 0.708 | 0.564
NCI-H1975 | 0.668 | 0.629 | 0.849 | 0.874 | 0.919 | 0.669 | 0.783 | 0.752 | 0.795 | 0.654 | 0.409 | 0.343 | 0.303 | 0.281 | 0.241 | 0.603 | 0.701 | 0.594 | 0.66 | 0.328
NCI-H1993 | 0.793 | 0.88 | 0.927 | 0.771 | 0.615 | 0.972 | 0.629 | 0.776 | 0.983 | 0.498 | 1.1 | 1.03 | 0.932 | 0.711 | 0.815 | 0.73 | 0.61 | 0.662 | 0.631 | 0.739
NCI-H2085 | 1.01 | 1.06 | 0.791 | 1 | 0.991 | 0.743 | 0.72 | 0.699 | 0.912 | 0.806 | 1.2 | 1.02 | 1.19 | 1.07 | 1.06 | 1.06 | 0.965 | 1.03 | 0.856 | 0.714
NCI-H2087 | 1.28 | 1.4 | 1.08 | 1.3 | 1.3 | 1.03 | 0.667 | 0.599 | 0.625 | 0.665 | 0.831 | 0.738 | 0.783 | 0.775 | 0.399 | 0.783 | 0.73 | 0.62 | 0.678 | 0.231
NCI-H2126 | 1.01 | 0.999 | 0.846 | 1.01 | 0.933 | 0.801 | 0.777 | 0.717 | 0.732 | 0.661 | 1.16 | 1 | 1.13 | 1.17 | 1.18 | 0.819 | 0.734 | 0.83 | 0.783 | 0.653
NCI-H2347 | 0.698 | 0.694 | 0.692 | 0.834 | 0.807 | 0.596 | 0.579 | 0.541 | 0.662 | 0.56 | 0.859 | 0.962 | 0.721 | 0.828 | 0.623 | 0.679 | 0.934 | 0.779 | 0.822 | 0.471
NCI-H2405 | 0.731 | 0.747 | 0.789 | 1.13 | 1.22 | 1.12 | 0.957 | 0.766 | 1.06 | 0.974 | 0.756 | 0.864 | 0.548 | 0.68 | 1.09 | 0.313 | 0.447 | 0.444 | 0.352 | 0.406
NCI-H3122 | 0.998 | 1.05 |  | 1.15 | 0.961 | 1 | 1.21 |  | 1.03 | 0.584 | 0.987 | 0.887 | 0.723 | 0.696 | 0.444 | 0.631 | 0.337 | 0.342 | 0.268 | 0.233
PC-3 [JPC-3] |  | 0.767 | 0.736 | 0.792 | 0.832 |  | 0.722 | 0.709 | 0.72 | 0.697 | 0.778 | 0.924 | 0.9 | 0.801 | 0.857 | 1.01 | 1.08 | 1.06 | 1.11 | 0.97
PC-14 | 0.276 | 0.278 | 0.369 | 0.318 | 0.443 |  | 0.839 | 0.695 | 0.808 | 0.69 | 0.815 | 0.746 | 0.942 | 1.08 | 0.604 | 1 | 0.854 | 0.923 | 1.01 | 0.751
RERF-LC-KJ | 1.06 | 0.836 | 0.728 | 0.879 | 0.945 | 0.643 | 0.628 | 0.523 | 0.664 | 0.566 | 1.22 | 1.14 | 1.29 | 1.12 | 1.03 | 0.721 | 0.912 | 0.749 | 0.719 | 0.597
